Patent US5478807A, “Use of relaxin in the treatment of bradycardia” (Genentech, Inc., priority 1992, dated 1995)
Where “and” joins values, the source holds several entries; their conditions need not be identical. Equal values may be shown once.

How the values were obtained:
pubic symphysis = experiment: Mouse pubic symphysis assay; conditions: in vivo
Procedure: The concentration of relaxin was determined by amino acid analysis.

right atrium = experiment: Right atrial rate, isolated spontaneously beating right atrium; parameters: species or system rat; conditions: for right atrial heart rate % Δ, mean (X): mean of experiments; for right atrial heart rate / right atrial heart rate % Δ: single experiment
Procedure: Krebs-Henseleit solution was prepared with the following composition (in millimoles): NaCl 118; KCl 4.7; MgSO4 1.64; NaHCO3 24.88; KH2 PO4 1.18; d-glucose 11.1; bubbled with 95% O2 /5% CO2; CaCl2 2.52.
Human (H2) relaxin (hRLx-2, 1.5 mg/ml; Genentech) was diluted fresh daily to desired concentrations (500:1; 5000:1; 50000:1) in Krebs-Henseleit solution.
Male Wistar rats (Charles River) weighing 475-525 g each, were anesthetized with sodium pentobarbital (60 mg/kg). After thoracotomy, the heart was removed rapidly and placed in cold (4° C.) Krebs-Henseleit solution until spontaneous contractions ceased. The right and left atria were excised.
Tissue was bathed in an organ chamber holding 42 ml Krebs-Henseleit solution that was aerated with 95% O2 /5% CO2 and heated to 37° C. with a temperature controlled water jacket. Tissue contractions were measured with force-displacement transducers (Grass FT 0.3) and recorded on chart paper (Grass moled 79 polygraph). The rates of contractions were determined with a cardiotachometer (Grass). Electrical stimulation of tissue was induced through bipolar clip electrodes connected to a stimulator through a stimulus isolation unit (Grass model S48).
Stainless steel clips weighing 0.5 g each were attached to each end of the right atrium. One clip was secured to a hook within the organ chamber and the other clip was attached to the force-displacement transducer. The position of the transducer was adjusted to yield 0.5 g resting tension.
In all experiments the atria were allowed to stabilize for 30 minutes prior to addition of drugs. […] Thus, cumulative dose-response curves were generated. At 10 minute intervals, relaxin was added to each organ chamber to obtain bath concentrations of 100 pg/ml, 300 pg/ml, 1 ng/ml, 3 ng/ml, 10 ng/ml and 30 ng/ml.
Measurement of contraction rate and force of contraction following each dose of relaxin were obtained after responses reached a steady state. Rate was determined directly from the output of the cardiotachometer. Force of contraction was measured as the magnitude of the contractile twitches. In order to adjust for variations between tissues, data are expressed as percent changes from pre-drug values, as means±standard errors. Measurements of rate were obtained in seven right atria; measurement of contractile force were obtained in four left atria.

rat isolated heart = experiment: Chronotropy and inotropy in Langendorff rat isolated heart; conditions: for maximum beating rate: 83 pMol
Procedure: Male Sprague-Dawley rats weighing 300-350 g (Charles River, Portage, Ind., USA) were anesthetized with 60 mg/kg pentobarbital sodium (Fort Dodge Laboratories, Inc., Fort Dodge, Iowa, USA) intraperitoneally. Following thoracotomy, the hearts were removed and placed into 4° C. […] Any associated lung and thymic tissue were trimmed off and the ascending aorta cannulated. The heart was then perfused at 10 ml/min with Krebs-Henseleit solution at 37° C. The perfusion pressure was constantly monitored. A small incision was made in the left atrium and a water-filled balloon (Hugo Sachs Electronik, March-Hugstetten, Germany) connected to a pressure transducer (Gould Electronics, Valley View, Ohio, USA) was placed into the left ventricle for the measurement of left ventricular developed pressure (LVDP). From this pressure, recording heart rate was electronically derived on a Grass polygraph (Quincy, Mass., USA).
In six experiments, after a 15-20 minutes stabilization period, the atria were removed. The heart rate was then allowed to stabilize at its new rate before the administration of relaxin. In three experiments, the atria were left intact.
Relaxin was administered as 50 μl bolus injections into the perfusion fluid immediately prior to entering the heart. Cumulative dose-response curves were constructed using human recombinant H2 relaxin (Genentech, Inc. South San Francisco, Calif., USA). […] Serial dilutions of both drugs were made using 0.9% (w/v) saline solution.
Statistical significance was determined by a two-tailed Student's unpaired t-test and P<0.005 was taken as significant.

[1] = Intravenous injection of relaxin, earlier experiments; type: in vivo

Substance: relaxin
- biological activity (pubic symphysis): biologically active
- right atrial heart rate % Δ, mean (X) (right atrium; 100 pg (printed under 30 pg)): 0.17%
- right atrial heart rate (right atrium; 100 pg): 290 beats/min and 270 beats/min and 300 beats/min and 320 beats/min
- right atrial heart rate % Δ (right atrium; 100 pg, change from pre-drug value): 0% and 1%
- right atrial heart rate % Δ, mean (X) (right atrium; 300 pg (printed under 100 pg)): 3.83%
- right atrial heart rate (right atrium; 300 pg): 300 beats/min and 295 beats/min and 310 beats/min and 330 beats/min
- right atrial heart rate % Δ (right atrium; 300 pg): 3% and 9% and 5% and 0%
- right atrial heart rate % Δ, mean (X) (right atrium; 1 ng (printed under 300 pg)): 11.67%
- right atrial heart rate (right atrium; 1 ng): 320 beats/min and 310 beats/min and 350 beats/min and 345 beats/min
- right atrial heart rate % Δ, mean (X) (right atrium; 3 ng (printed under 1 ng)): 23.33%
- right atrial heart rate (right atrium; 3 ng): 345 beats/min and 350 beats/min and 400 beats/min and 360 beats/min and 365 beats/min
- right atrial heart rate % Δ, mean (X) (right atrium; 10 ng (printed under 3 ng)): 32.0%
- right atrial heart rate (right atrium; 10 ng): 345 beats/min and 390 beats/min and 445 beats/min and 370 beats/min and 385 beats/min and 380 beats/min
- right atrial heart rate % Δ, mean (X) (right atrium; 30 ng (printed under 10 ng)): 36.2%
- average increase in contraction rate (right atrium; 30 ng/minute dose): 36%
- right atrial heart rate (right atrium; 30 ng): 400 beats/min and 450 beats/min and 385 beats/min and 395 beats/min and 405 beats/min
- point of half maximal increase in contraction rate (right atrium; right atrium): about 1.8 ng/ml
- transient increases in coronary perfusion pressure (rat isolated heart): not seen
- effect on LVDP (rat isolated heart; atria removed (LVDP 143±9 mmHg), 0.83 pMol): significantly reduced the LVDP to control levels
- maximum beating rate (rat isolated heart; atria removed, basal 139±15 bpm): 268±7 bpm
- maximum beating rate (rat isolated heart; intact heart preparations, basal 270±7 bpm): 412±18 bpm
- inotropic effect (rat isolated heart; isolated heart preparations): no positive inotropic effects
- duration of chronotropic effect (rat isolated heart; relaxin: single bolus administration of 830 pMol): up to two hours
- heart rate [1]: small but consistent increase in heart rate
- systolic and diastolic pressure [1]: decrease in systolic and diastolic pressure
